From article PMC4267740, “Unprecedented Therapeutic Potential with a Combination of A2A/NR2B Receptor Antagonists as Observed in the 6-OHDA Lesioned Rat Model of Parkinson's Disease” (PLoS ONE, 2014)
Entries after “also recorded” stand apart in the source; their conditions may differ.

Tests used:
[1] = system: unilateral 6-OHDA-lesioned rats; test: Rearing counts in actometers, monotherapy (without L-Dopa); assay type: in vivo, rat
Description: (§1) To protect norepinephrinergic neurons, animals were administered imipramine HCl (Sigma) 15 minutes before surgery. They were subsequently anesthetized with ketamine (Ceva, 75 mg/kg) and xylazine (Bayer, 10 mg/kg) and placed in stereotaxic frame (David Kopf Instrument). 6-OHDA was injected into the right ascending medial forebrain bundle at the following coordinates (in mm) relative to bregma and surface of the dura, AP = −3.5, ML = −1.5, DV = −8.7. Each rat received one injection of 6-OHDA (4 µg/µl) over a period of 5 minutes (0.5 µl/min) for a total of 10 µg per rat. Animals were monitored for 3 weeks to ensure full recovery and habituation to the environment and experimenters.
(§2) On day 21 post surgery, all rats were challenged with a small dose of subcutaneously administered apomorphine (Sigma, 0.05 mg/kg). Rats showing more than 90 contralateral rotations (360°) over a 45-minute recording period were included in the study. […] For each experiment, rats were allocated to the different experimental groups in order to get the same mean level of basal activity measured at the apomorphine challenge amongst the different experimental groups.
Drug-naïve separate rats were tested individually in clear acrylic chambers (LE8811 IR, Panlab). Locomotion was detected and measured by 16 infrared light-beam sensors located on each side of the enclosure at a height of 3 cm. Sensors were spaced such that the light beams formed a matrix of 15×15 squares over the surface. Activity counts were recorded on a computer and Acti-Track software (Actitrack, Panlab) was used to convert raw data into “distance traveled” and “rearing counts” for analysis as relevant dependent variables.
Six different combinations of A2A/NR2B antagonists were tested without L-Dopa. For each combination, there were four different procedures: vehicle only; A2A antagonist followed by vehicle; vehicle followed by the NR2B antagonist and A2A antagonist followed by the NR2B antagonist. The drugs, doses and combinations are described in Table 3. After drug administration, rats were placed in actometers (open-field) for monitoring the general level of motor activity (distance traveled and rearing counts).
Before undertaking the study, each A2A and NR2B antagonist was tested individually. The doses were selected on the basis of preliminary dose-response curves performed separately for each drug and submaximal dose (i.e. response observed is not at its maximal level) of each drug was selected for the combination studies. The two drugs were administered separately via an intraperitoneal (ip) injection with a 2-minute interval between the two drugs. Five minutes after the second injection, animals were placed in the testing cage for behavioural recording. Due to formulation and exposure issues, Tozadenant and Radiprodil had to be administered orally and therefore recording was started 60 minutes post dosing at this corresponds to maximum plasma concentrations. Eight drug-naïve animals were used for each of the four procedures; 32 in total for each combination. All behavioral experiments were conducted between 8.00 AM and 2.00 PM at the latest. Preliminary pharmacokinetic assays investigated the plasma and brain disposition of selected drugs administered alone or in combination (ie. Tozadenant/Radiprodil, and Sch-58261/Co-101244; 3 animals per group). Tozadenant and Radiprodil were measured in samples obtained 60 minutes after single oral administration at 30 mg/kg. Sch-58261 and Co-101244 were measured in samples collected 90 min after single intraperitoneal administration at 3 mg/kg.
The effects of A2A and NR2B antagonists on the level of motor activity (i.e. distance traveled and rearing counts) were assessed with three-way mixed ANOVA, combining the A2A receptor antagonist (2 levels, vehicle and the A2A drug) and the NR2B antagonist (2 levels, vehicle and the NR2B drug) as between-group factors with the time as within-subjects factor (6 or 9 levels). […]

[2] = system: unilateral 6-OHDA-lesioned rats; test: L-Dopa-induced contralateral rotations in rotometers, add-on therapy; assay type: in vivo, rat; details: add-on to L-Dopa 25 mg/kg ip; for Contralateral rotations, drugs alone vs vehicle, time for which significant: 10-min intervals, 120 min recording; for Time for which the drug given separately was active in increasing or prolonging the L-Dopa effect on contralateral rotations: each given separately
Description: as §1, §2
The rats tested one week earlier for general activity (actometers) were once again placed in clear acrylic individual chambers (50×45 cm) with the same treatment (drug and dose) than that previously received plus L-Dopa. Eight chambers were placed on a level, clear glass bottom, held by a robust frame, and were subdivided into four individual test cages of 25×22 cm. A removable acrylic plate served as a lid.
Rotational behaviour was recorded using a home-made computerized system. Rats were fixed in a harness and linked to mechanical sensors connected directly to a computer. Each 360° clock-wise or counter clock-wise turn was automatically recorded for up to 120 minutes at the maximum. Throughout the experiments, rats were allocated to individual test cages.
Four different combinations were administered as add-on treatment to a low active dose of L-Dopa (25 mg/kg, ip) without any dopa decarboxylase inhibitor to avoid any additional pharmacokinetic interaction. The doses of the compounds were selected on the basis of preliminary dose-response curves performed separately for each drug. To avoid ceiling effect with L-Dopa, only submaximal doses of each drug were selected for testing (as it was done previously for monotherapy). Eight L-Dopa naïve animals were tested for each of the four pharmacological condition: vehicle and L-Dopa (25 mg/kg); A2A antagonist followed by vehicle and L-Dopa; vehicle followed by NR2B antagonist and L-Dopa; A2A antagonist followed by NR2B and L-Dopa. Due to the dominance of the L-Dopa-effect on the lesioned striatum, the unilateral 6-OHDA-lesioned rats rotated after the drugs administration and behavioral activity was recorded in rotometers (i.e. level of contralateral rotations).
All drugs were administered i.p. 25 minutes before behavioural recording, except for the Tozadenant and Radiprodil combination which was administered orally 60 minutes before behavioural recording. As Radiprodil was administered orally, L-Dopa was given 45 minutes after the Radiprodil injection whereas for the other combinations L-Dopa was given 15 minutes after the NR2B drug. The drugs, the doses and the combinations given in co-administration to L-Dopa are described in Table 4 .
The impact of treatment with A2A or NR2B receptor antagonists, given alone or in combination, on the effect of L-Dopa on contralateral rotations was also analysed with a three-way mixed ANOVA. The ANOVA included the A2A and the NR2B receptor antagonists (both, 2 levels, vehicle and the drug) as between-group factors combined with time (12 levels) as within-subjects factor. […] The ability of the combination to increase and prolong the activity of L-Dopa was also explored. Consequently, drug effects were analyzed for every 10-min time interval. […]

[3] = Preladenant 0.1 mg/kg ip, Radiprodil 1 mg/kg ip
[4] = Tozadenant 30 mg/kg po, Radiprodil 3 mg/kg po
[5] = Preladenant 0.03 mg/kg ip, Radiprodil 0.3 mg/kg ip
[6] = Sch-58261 1 mg/kg ip, Co-101244 1 mg/kg ip
[7] = Sch-58261 1 mg/kg ip, Merck 22 1 mg/kg ip
[8] = Sch-58261 0.3 mg/kg ip, Co-101244 1 mg/kg ip

SMILES	Rearing counts, drugs alone vs vehicle, p (Newman-Keuls) [1, 4]	Rearing counts, drugs main effect, p (three-way mixed ANOVA) [1, 4]	Rearing counts, drugs × time effect, p (three-way mixed ANOVA) [1, 4]	Contralateral rotations, drugs alone vs vehicle, p (planned contrasts on each 10-min interval) [2, 4]	Contralateral rotations, drugs main effect, p (three-way mixed ANOVA) [2, 4]	Contralateral rotations, drugs × time effect, p (three-way mixed ANOVA) [2, 4]	Contralateral rotations, drugs alone vs vehicle, time for which significant [2, 4]	Time for which the drug given separately was active in increasing or prolonging the L-Dopa effect on contralateral rotations [2, 4]	other results
O=C(Nc1ccc2[nH]c(=O)oc2c1)C(=O)N1CCC(Cc2ccc(F)cc2)CC1 [Radiprodil]	Not significant	p<0.01	p<0.001	< 0.05	p<0.01	p<0.001	20 ′	20 min	Rearing counts, drugs alone vs vehicle, p (Newman-Keuls) [1, 3]: Radiprodil, not significant; Rearing counts, drugs main effect, p (three-way mixed ANOVA) [1, 3]: p<0.001; Rearing counts, drugs × time effect, p (three-way mixed ANOVA) [1, 3]: p<0.01; Rearing counts, drug alone in comparison to vehicle rats ([1]; drug administered alone): not; Contralateral rotations, drugs alone vs vehicle, p (planned contrasts on each 10-min interval) [2, 5]: Not significant; Contralateral rotations, drugs main effect, p (three-way mixed ANOVA) [2, 5]: Not significant; Contralateral rotations, drugs × time effect, p (three-way mixed ANOVA) [2, 5]: p<0.01
Nc1nc2c(cnn2CCc2ccccc2)c2nc(-c3ccco3)nn12 [Sch-58261]	–	–	–	–	–	–	–	–	Rearing counts, drugs alone vs vehicle, p (Newman-Keuls) [1, 6]: Both p<0.05; Rearing counts, drugs main effect, p (three-way mixed ANOVA) [1, 6]: p<0.001; Rearing counts, drugs × time effect, p (three-way mixed ANOVA) [1, 6]: p<0.001; Rearing counts, drugs alone vs vehicle, p (Newman-Keuls) [1, 7]: Sch-58261 p<0.05; Rearing counts, drugs main effect, p (three-way mixed ANOVA) [1, 7]: p<0.001; Rearing counts, drugs × time effect, p (three-way mixed ANOVA) [1, 7]: p<0.001; Contralateral rotations, drugs main effect, p (three-way mixed ANOVA) [2, 8]: p<0.05; Contralateral rotations, drugs × time effect, p (three-way mixed ANOVA) [2, 8]: p<0.001
COc1ccc(N2CCOCC2)c2sc(NC(=O)N3CCC(C)(O)CC3)nc12 [Tozadenant]	exception; also recorded: Not significant	p<0.01	p<0.001	< 0.05	p<0.001	p<0.001	80 ′	80 min	–
